Experimental data: article PMC8550792, “Evolution of kinase polypharmacology across HSP90 drug discovery” (Cell Chemical Biology, 2021)

What was measured:
Assay in all cases: biochemical
Assay type in all cases: biochemical
382 unique human kinases [1] = target: T1, 382 unique human kinases (Homo sapiens, UniProt O75385); details: ULK1, 10 uM; for remaining activity at 10 µM: read-out: % Enzyme Activity (relative to DMSO controls)
T1 construct: purchased Reaction Biology (HotSpot contract assay)
T1 sequence (O75385 1-1050): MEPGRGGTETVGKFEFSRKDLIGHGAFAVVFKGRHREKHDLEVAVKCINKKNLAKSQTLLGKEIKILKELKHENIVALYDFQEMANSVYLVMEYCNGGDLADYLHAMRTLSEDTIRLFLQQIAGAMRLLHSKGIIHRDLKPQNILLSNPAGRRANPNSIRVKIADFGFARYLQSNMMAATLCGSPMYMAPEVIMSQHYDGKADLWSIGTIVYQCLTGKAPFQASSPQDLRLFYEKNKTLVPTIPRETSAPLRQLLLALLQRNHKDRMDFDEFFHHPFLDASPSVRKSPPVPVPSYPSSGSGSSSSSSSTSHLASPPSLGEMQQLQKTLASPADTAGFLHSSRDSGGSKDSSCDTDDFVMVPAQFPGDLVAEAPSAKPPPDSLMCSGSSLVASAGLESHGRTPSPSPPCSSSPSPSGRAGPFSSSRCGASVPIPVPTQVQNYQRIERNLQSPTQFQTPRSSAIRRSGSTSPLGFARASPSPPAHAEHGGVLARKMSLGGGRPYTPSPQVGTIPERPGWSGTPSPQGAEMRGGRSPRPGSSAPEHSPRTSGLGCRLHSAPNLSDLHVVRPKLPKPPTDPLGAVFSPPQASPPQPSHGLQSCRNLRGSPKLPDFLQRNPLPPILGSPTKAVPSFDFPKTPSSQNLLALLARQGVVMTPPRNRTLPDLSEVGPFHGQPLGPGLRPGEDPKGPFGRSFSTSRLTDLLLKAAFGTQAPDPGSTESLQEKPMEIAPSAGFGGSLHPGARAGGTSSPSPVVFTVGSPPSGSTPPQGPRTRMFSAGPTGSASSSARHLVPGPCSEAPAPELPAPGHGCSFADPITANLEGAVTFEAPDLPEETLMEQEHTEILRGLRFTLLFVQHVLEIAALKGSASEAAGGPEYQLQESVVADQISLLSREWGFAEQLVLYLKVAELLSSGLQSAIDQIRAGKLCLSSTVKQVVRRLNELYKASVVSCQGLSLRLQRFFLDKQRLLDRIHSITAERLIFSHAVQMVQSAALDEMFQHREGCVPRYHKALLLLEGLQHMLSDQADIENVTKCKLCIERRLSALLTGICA

382 unique human kinases [2] = target: T2, 382 unique human kinases (Homo sapiens, UniProt Q96PN8); details: kinase TSSK3/STK22C, compound 10 uM; for remaining activity at 10 µM: read-out: % Enzyme Activity (relative to DMSO controls)
T2 construct: purchased Reaction Biology (HotSpot contract assay)
T2 sequence (Q96PN8 1-268): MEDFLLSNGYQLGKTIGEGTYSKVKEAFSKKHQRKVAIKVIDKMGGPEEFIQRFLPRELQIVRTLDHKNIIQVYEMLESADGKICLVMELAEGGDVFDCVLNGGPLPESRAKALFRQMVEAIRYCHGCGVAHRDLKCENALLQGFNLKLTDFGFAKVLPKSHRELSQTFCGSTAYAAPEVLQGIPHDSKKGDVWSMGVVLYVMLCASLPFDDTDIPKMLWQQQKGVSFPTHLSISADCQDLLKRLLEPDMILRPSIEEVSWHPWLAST

382 unique human kinases [3] = target: T3, 382 unique human kinases (Homo sapiens, UniProt P10721, D816V); details: c-Kit (D816V), [ATP] 10 µM, compound 10 uM; for remaining activity at 10 µM: read-out: % Enzyme Activity (relative to DMSO controls)
T3 construct: purchased Reaction Biology (HotSpot contract assay)

382 unique human kinases [4] = target: T4, 382 unique human kinases (Homo sapiens, UniProt Q9BZL6, G870E); details: PKD2 (G870E), [ATP] 30 µM, compound 10 uM; for remaining activity at 10 µM: read-out: % Enzyme Activity (relative to DMSO controls)
T4 construct: purchased Reaction Biology (HotSpot contract assay)
T4 sequence (Q9BZL6 1-878 G870E): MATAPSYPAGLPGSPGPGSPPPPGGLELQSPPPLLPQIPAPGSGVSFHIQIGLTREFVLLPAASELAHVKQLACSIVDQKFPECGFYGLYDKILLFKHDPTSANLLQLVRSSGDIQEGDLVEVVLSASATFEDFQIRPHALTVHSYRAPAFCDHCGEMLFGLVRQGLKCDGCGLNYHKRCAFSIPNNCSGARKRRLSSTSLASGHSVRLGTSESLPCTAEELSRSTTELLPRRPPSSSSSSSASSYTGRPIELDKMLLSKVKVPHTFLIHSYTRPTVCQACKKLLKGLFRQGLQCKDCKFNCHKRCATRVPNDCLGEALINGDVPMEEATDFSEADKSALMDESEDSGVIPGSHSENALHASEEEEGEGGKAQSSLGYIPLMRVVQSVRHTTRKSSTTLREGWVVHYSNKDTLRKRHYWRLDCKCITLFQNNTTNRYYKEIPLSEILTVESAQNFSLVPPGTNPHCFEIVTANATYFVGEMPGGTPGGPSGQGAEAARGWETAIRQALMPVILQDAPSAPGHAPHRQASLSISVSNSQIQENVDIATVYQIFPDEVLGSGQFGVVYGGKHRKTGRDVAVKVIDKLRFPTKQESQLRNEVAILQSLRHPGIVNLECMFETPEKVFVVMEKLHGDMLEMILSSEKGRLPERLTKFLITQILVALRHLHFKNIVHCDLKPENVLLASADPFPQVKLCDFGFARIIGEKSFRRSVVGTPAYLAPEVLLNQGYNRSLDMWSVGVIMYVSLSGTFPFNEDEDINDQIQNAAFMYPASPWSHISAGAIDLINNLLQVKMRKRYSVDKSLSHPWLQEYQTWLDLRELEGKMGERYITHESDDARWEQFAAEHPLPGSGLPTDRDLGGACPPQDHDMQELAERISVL

382 unique human kinases [5] = target: T5, 382 unique human kinases (Homo sapiens, UniProt Q14680, T460M); details: MELK (T460M), [ATP] 20 µM, compound 10 uM; for remaining activity at 10 µM: read-out: % Enzyme Activity (relative to DMSO controls)
T5 construct: purchased Reaction Biology (HotSpot contract assay)

382 unique human kinases [6] = target: T6, 382 unique human kinases (Homo sapiens, UniProt P00519); details: ABL1, [ATP] 40 µM
T6 construct: purchased Reaction Biology (HotSpot contract assay)
T6 sequence (P00519 whole entry): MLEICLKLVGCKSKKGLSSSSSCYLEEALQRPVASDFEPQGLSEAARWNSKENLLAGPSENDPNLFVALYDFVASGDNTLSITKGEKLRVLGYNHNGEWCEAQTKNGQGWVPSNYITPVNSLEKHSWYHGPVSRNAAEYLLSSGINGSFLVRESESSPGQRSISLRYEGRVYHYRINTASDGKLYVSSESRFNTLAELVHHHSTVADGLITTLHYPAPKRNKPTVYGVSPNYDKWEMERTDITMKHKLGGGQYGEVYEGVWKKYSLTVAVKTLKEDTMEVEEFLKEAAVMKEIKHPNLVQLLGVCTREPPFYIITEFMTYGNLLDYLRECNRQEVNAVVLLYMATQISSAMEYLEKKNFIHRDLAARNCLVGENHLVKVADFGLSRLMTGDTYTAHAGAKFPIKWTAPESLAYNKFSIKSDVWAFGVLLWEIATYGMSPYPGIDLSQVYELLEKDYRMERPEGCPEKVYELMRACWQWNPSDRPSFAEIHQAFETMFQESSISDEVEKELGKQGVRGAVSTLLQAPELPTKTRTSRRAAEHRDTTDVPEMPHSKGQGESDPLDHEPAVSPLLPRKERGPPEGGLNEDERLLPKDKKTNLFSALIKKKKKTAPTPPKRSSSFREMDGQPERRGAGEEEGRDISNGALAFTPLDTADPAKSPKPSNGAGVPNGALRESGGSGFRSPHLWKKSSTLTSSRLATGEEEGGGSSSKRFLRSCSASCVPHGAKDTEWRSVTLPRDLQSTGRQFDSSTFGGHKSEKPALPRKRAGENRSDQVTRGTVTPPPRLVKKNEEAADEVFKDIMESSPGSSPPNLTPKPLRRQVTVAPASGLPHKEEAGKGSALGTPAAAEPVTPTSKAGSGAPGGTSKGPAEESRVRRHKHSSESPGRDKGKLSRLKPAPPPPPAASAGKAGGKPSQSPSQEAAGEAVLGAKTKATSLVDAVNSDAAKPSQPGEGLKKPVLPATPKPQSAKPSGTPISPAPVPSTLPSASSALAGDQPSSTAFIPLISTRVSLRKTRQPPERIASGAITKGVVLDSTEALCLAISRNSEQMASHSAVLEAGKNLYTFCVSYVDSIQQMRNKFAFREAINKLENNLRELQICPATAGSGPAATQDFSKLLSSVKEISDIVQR

T5 sequence (Q14680 whole entry T460M): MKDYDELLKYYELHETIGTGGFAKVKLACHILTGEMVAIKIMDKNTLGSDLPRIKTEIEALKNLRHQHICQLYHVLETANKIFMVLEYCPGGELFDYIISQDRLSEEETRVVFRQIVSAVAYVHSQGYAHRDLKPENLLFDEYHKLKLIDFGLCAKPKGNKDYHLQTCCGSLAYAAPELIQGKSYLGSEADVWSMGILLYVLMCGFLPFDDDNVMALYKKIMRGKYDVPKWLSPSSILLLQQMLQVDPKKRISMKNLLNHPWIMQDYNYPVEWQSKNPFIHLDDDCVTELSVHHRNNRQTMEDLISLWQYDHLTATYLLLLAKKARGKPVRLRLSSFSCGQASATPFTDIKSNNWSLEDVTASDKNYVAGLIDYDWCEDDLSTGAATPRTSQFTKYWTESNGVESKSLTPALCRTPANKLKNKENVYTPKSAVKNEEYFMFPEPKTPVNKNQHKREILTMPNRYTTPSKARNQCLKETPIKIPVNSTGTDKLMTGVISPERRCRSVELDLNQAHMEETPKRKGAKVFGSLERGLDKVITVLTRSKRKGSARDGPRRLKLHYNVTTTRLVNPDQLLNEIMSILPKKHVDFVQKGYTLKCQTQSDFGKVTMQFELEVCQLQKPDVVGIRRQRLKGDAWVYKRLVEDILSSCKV
T3 sequence (P10721 26-976 D816V): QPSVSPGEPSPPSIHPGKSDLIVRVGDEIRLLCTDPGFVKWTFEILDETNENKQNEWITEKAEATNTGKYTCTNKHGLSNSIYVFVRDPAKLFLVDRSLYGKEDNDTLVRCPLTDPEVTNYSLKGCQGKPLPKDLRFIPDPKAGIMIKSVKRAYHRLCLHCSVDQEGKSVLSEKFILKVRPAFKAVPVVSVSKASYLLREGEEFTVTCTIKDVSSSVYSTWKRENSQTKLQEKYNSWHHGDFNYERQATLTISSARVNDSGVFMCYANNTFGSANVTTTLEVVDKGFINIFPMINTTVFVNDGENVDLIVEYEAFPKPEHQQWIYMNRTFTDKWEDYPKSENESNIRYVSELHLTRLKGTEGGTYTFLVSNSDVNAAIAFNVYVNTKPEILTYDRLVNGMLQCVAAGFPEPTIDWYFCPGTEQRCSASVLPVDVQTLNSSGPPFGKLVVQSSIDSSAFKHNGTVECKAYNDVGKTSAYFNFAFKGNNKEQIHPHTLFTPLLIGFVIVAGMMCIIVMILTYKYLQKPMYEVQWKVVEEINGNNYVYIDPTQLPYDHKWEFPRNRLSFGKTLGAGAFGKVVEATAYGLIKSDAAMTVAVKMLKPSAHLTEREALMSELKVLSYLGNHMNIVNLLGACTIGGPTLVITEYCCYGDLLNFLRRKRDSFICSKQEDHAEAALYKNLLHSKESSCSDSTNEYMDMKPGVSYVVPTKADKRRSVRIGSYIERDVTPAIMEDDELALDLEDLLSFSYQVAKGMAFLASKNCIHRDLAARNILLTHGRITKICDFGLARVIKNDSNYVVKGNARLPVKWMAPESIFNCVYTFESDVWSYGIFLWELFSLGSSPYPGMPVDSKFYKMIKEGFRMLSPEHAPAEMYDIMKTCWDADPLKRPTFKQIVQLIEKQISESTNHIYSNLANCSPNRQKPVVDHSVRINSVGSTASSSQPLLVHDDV

Compound	remaining activity at 10 µM (382 unique human kinases [1])	remaining activity at 10 µM (382 unique human kinases [2])	remaining activity at 10 µM (382 unique human kinases [3])	remaining activity at 10 µM (382 unique human kinases [4])	remaining activity at 10 µM (382 unique human kinases [5])	other results
CC(C)c1cc(-c2n[nH]c(=O)n2-c2ccc3c(ccn3C)c2)c(O)cc1O [Ganetespib (STA9090)]	73%	93.1%	–	–	–	–
CC(C)c1cc(-c2n[nH]c(=O)n2-c2ccc3c(ccn3C)c2)c(O)cc1O [Ganetespib]	–	–	30.4%	59.7%	43.6%	remaining activity at 1 µM (382 unique human kinases [6]; compound 1 uM, read-out: % Enzyme Activity (relative to DMSO controls)): 18.3%
CCNC(=O)c1noc(-c2cc(C(C)C)c(O)cc2O)c1-c1ccc(CN2CCOCC2)cc1 [Luminespib (AUY-922)]	104%	147%	–	–	–	% Enzyme Activity (relative to DMSO controls) (382 unique human kinases [1]): 102.69%; % Enzyme Activity (relative to DMSO controls) (382 unique human kinases [2]): 144.69%
CCNC(=O)c1noc(-c2cc(C(C)C)c(O)cc2O)c1-c1ccc(CN2CCOCC2)cc1 [Luminespib]	–	–	68.9%	104%	74.9%	% Enzyme Activity (relative to DMSO controls) (382 unique human kinases [3]): 67.99%; % Enzyme Activity (relative to DMSO controls) (382 unique human kinases [4]): 103.84%; % Enzyme Activity (relative to DMSO controls) (382 unique human kinases [5]): 72.49%; % Enzyme Activity (relative to DMSO controls) (382 unique human kinases [6]; compound 10 uM): 6.22%; remaining activity at 10 µM (382 unique human kinases [6]; compound 10 uM, read-out: % Enzyme Activity (relative to DMSO controls)): 6.93%
